What all share (type): cell-based
The subject of assay [1] is T-Rex 293 cells lacking increased expression of estrogen receptor alpha protein. Nature of the assay: Cellular growth inhibition assay, T-Rex 293 cells, (−) doxycycline. The following applies: T-REx-293, 72 h, Table 7-A; T-Rex 293 cells without doxycycline (lacking increased ERα expression); 72 hours; CellTiter-Glo; read-out: (−) Dox GI50. In outline: (§1)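 Growth of a doxycycline-inducible ERα T-Rex 293 clone, induced or not with 3 ng/mL doxycycline, was followed for 72 h with test compound in hormone-depleted medium. CellTiter-Glo luminescence gave GI50.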
For orientation: Cellular ATP, detected with luciferase, serves as a proxy for viable cell number.

In assay [2] the test system is MCF7 cells (ATCC #HTB-22). Put plainly: Cellular growth inhibition assay, MCF7 cells purchased from ATCC. Conditions: Homo sapiens, MCF7, 144 h, Table 8-A; MCF7 cells purchased from ATCC; six days; CellTiter-Glo; read-out: GI50. In short, it runs like this:
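GI50 values come from a four-parameter fit of CellTiter-Glo 2.0 luminescence after six days of compound exposure at 37° C. Seeding density depended on the source: 225 cells/well for ECACC MCF7, 1,500 for ATCC. Medium was RPMI 1640 with 10% FBS and 0.2 U/ml insulin.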

Assay [3] deals with T-Rex 293 cells having increased expression of estrogen receptor alpha protein. Put plainly: Cellular growth inhibition assay, T-Rex 293 cells, (+) doxycycline. The following applies: T-REx-293, 72 h, Table 7-A; T-Rex 293 cells with doxycycline (increased ERα expression); 72 hours; CellTiter-Glo; read-out: (+) Dox GI50. In short, it runs like this: as §1

Some results are limits rather than exact numbers.

In the case of `Cc1cc([C@H]2c3ccc(O)cc3CC[C@H]2c2ccc(F)cc2)ccc1N1CCN(CC2(O)CCN(c3ccc(C4=N[C@@H](C)c5nnc(C)n5-c5sc(C)c(C)c54)cc3)CC2)CC1` [III-283], the GI50 in assay [1] lay in the range of 500 to 2500 nM; in assay [2] it was 50 to 500 nM; in assay [3] it was 50 to 500 nM.
Turning to `Cc1cc([C@@H]2c3ccc(O)cc3CC[C@@H]2c2ccc(F)cc2)ccc1N1CCN(CC2(O)CCN(c3ccc(C4=N[C@@H](C)c5nnc(C)n5-c5sc(C)c(C)c54)cc3)CC2)CC1` [III-284], the 50% growth inhibitory concentration (GI50) lay within 500 to 2500 nM in assay [1], 50 to 500 nM in assay [2] and 50 to 500 nM in assay [3].
In the case of `Cc1cc(N2CCN(CC3(O)CCN(c4ccc(C5=N[C@@H](C)c6nnc(C)n6-c6sc(C)c(C)c65)cc4)CC3)CC2)c(F)cc1[C@H]1c2ccc(O)cc2CC[C@H]1c1ccccc1` [III-285], the GI50 in assay [1], in assay [2] and in assay [3] was 50 to 500 nM in each case.
Take `Cc1cc(N2CCN(CC3(O)CCN(c4ccc(C5=N[C@@H](C)c6nnc(C)n6-c6sc(C)c(C)c65)cc4)CC3)CC2)c(F)cc1[C@@H]1c2ccc(O)cc2CC[C@@H]1c1ccccc1` [III-286]: the GI50 in assay [1] was 500 to 2500 nM; in assay [2], under 50 nM; in assay [3] it was under 50 nM.
Regarding `Cc1cc([C@@H]2c3ccc(O)cc3CC[C@@H]2c2ccccc2)c(F)cc1N1CCN(CC2(O)CCN(c3ccc(C4=N[C@@H](C)c5nnc(C)n5-c5sc(C)c(C)c54)cc3)CC2)CC1` [III-287], the figures for the GI50 in assay [1], in assay [2] and in assay [3] were 500 to 2500 nM, 50 to 500 nM and under 50 nM, respectively.
For `Cc1cc([C@H]2c3ccc(O)cc3CC[C@H]2c2ccccc2)c(F)cc1N1CCN(CC2(O)CCN(c3ccc(C4=N[C@@H](C)c5nnc(C)n5-c5sc(C)c(C)c54)cc3)CC2)CC1` [III-288], in that order: 500 to 2500 nM, 50 to 500 nM and 50 to 500 nM.
The corresponding values for `Cc1sc2c(c1C)C(c1ccc(N3CCC(O)(CN4CCN(c5ccc([C@@H]6c7ccc(O)cc7CC[C@@H]6c6cccc(F)c6)c(F)c5)CC4)CC3)cc1)=N[C@@H](C)c1nnc(C)n1-2` [III-289] are 500 to 2500 nM, under 50 nM and under 50 nM.
For `Cc1sc2c(c1C)C(c1ccc(N3CCC(O)(CN4CCN(c5ccc([C@H]6c7ccc(O)cc7CC[C@H]6c6cccc(F)c6)c(F)c5)CC4)CC3)cc1)=N[C@@H](C)c1nnc(C)n1-2` [III-290], in that order: 50 to 500 nM, 50 to 500 nM and under 50 nM.
Take `Cc1sc2c(c1C)C(c1ccc(N3CCC(O)(CN4CCN(c5ccc([C@@H]6c7ccc(O)cc7CC[C@@H]6c6ccccc6F)c(F)c5)CC4)CC3)cc1)=N[C@@H](C)c1nnc(C)n1-2` [III-291]: the GI50 in assay [1] was 500 to 2500 nM; in assay [2], under 50 nM; in assay [3], under 50 nM.
As for `Cc1sc2c(c1C)C(c1ccc(N3CCC(O)(CN4CCN(c5ccc([C@H]6c7ccc(O)cc7CC[C@H]6c6ccccc6F)c(F)c5)CC4)CC3)cc1)=N[C@@H](C)c1nnc(C)n1-2` [III-292], the GI50 in assay [1], in assay [2] and in assay [3] was 50 to 500 nM in each case.
Turning to `Cc1sc2c(c1C)C(c1ccc(N3CCC(O)(CN4CCN(c5ccc([C@@H]6c7ccc(O)cc7CC[C@@H]6c6c(F)cccc6F)c(F)c5)CC4)CC3)cc1)=N[C@@H](C)c1nnc(C)n1-2` [III-293], the results for the GI50 in assay [1], in assay [2] and in assay [3] were 500 to 2500 nM, under 50 nM and under 50 nM, respectively.
Take `Cc1sc2c(c1C)C(c1ccc(N3CCC(O)(CN4CCN(c5ccc([C@H]6c7ccc(O)cc7CC[C@H]6c6c(F)cccc6F)c(F)c5)CC4)CC3)cc1)=N[C@@H](C)c1nnc(C)n1-2` [III-294]: the GI50 in assay [1], in assay [2] and in assay [3] was 50 to 500 nM throughout.
Turning to `Cc1sc2c(c1C)C(c1ccc(N3CC4(CC(CN5CCN(c6cc(F)c([C@H]7c8ccc(O)cc8CC[C@H]7c7ccc(F)cc7)c(F)c6)CC5)C4)C3)cc1)=N[C@@H](C)c1nnc(C)n1-2` [III-295], the values for the GI50 in assay [1], in assay [2] and in assay [3] were 500 to 2500 nM, 50 to 500 nM and 500 to 2500 nM, respectively.
Consider `Cc1sc2c(c1C)C(c1ccc(N3CC4(CC(CN5CCN(c6cc(F)c([C@@H]7c8ccc(O)cc8CC[C@@H]7c7ccc(F)cc7)c(F)c6)CC5)C4)C3)cc1)=N[C@@H](C)c1nnc(C)n1-2` [III-296], for which the figures for the GI50 in assay [1], in assay [2] and in assay [3] were 500 to 2500 nM, 50 to 500 nM and 50 to 500 nM, respectively.
On to `Cc1cc(N2CCN(CC3(O)CCN(c4ccc(C5=N[C@@H](C)c6nnc(C)n6-c6sc(C)c(C)c65)cc4)CC3)CC2)ccc1[C@H]1c2ccc(O)cc2CC[C@H]1c1ccc(F)cc1` [III-297], for which the 50% growth inhibitory concentration (GI50) in assay [1], in assay [2] and in assay [3] was 50 to 500 nM in each case.
For the compound `Cc1cc(N2CCN(CC3(O)CCN(c4ccc(C5=N[C@@H](C)c6nnc(C)n6-c6sc(C)c(C)c65)cc4)CC3)CC2)ccc1[C@@H]1c2ccc(O)cc2CC[C@@H]1c1ccc(F)cc1` [III-298], the GI50 in assay [1], in assay [2] and in assay [3] was 50 to 500 nM in each case.
As for `Cc1sc2c(c1C)C(c1ccc(N3CCC(O)(CN4CCN(c5cc(F)c([C@@H]6c7ccc(O)cc7CC[C@@H]6c6ccccc6)cc5F)CC4)CC3)cc1)=N[C@@H](Cc1ncco1)c1nnc(C)n1-2` [III-299], the figures for the GI50 in assay [1], in assay [2] and in assay [3] were 50 to 500 nM, under 50 nM and under 50 nM, respectively.
In the case of `Cc1sc2c(c1C)C(c1ccc(N3CCC(O)(CN4CCN(c5cc(F)c([C@H]6c7ccc(O)cc7CC[C@H]6c6ccccc6)cc5F)CC4)CC3)cc1)=N[C@@H](Cc1ncco1)c1nnc(C)n1-2` [III-300], the GI50 is 50 to 500 nM in assay [1], 50 to 500 nM in assay [2] and under 50 nM in assay [3].
As to `Cc1sc2c(c1C)C(c1ccc(N3CCC(O)(CN4CCN(c5ccc([C@H]6c7ccc(O)cc7CC[C@H]6c6ccc(F)cc6)cc5Cl)CC4)CC3)cc1)=N[C@@H](C)c1nnc(C)n1-2` [III-301], the concentration for 50% growth inhibition (GI50) in assay [1] lay in the range of 500 to 2500 nM; in assay [2] it was 50 to 500 nM; in assay [3], 500 to 2500 nM.
In the case of `Cc1sc2c(c1C)C(c1ccc(N3CCC(O)(CN4CCN(c5ccc([C@@H]6c7ccc(O)cc7CC[C@@H]6c6ccc(F)cc6)cc5Cl)CC4)CC3)cc1)=N[C@@H](C)c1nnc(C)n1-2` [III-302], the GI50 in assay [1] fell in the range of 500 to 2500 nM; in assay [2], 50 to 500 nM; in assay [3] it was 50 to 500 nM.
As to `Cc1sc2c(c1C)C(c1ccc(N3CCC(O)(CN4CCN(c5cc(F)c([C@H]6c7ccc(O)cc7CC[C@H]6c6ccccc6)cc5F)CC4)CC3)cc1F)=N[C@@H](C)c1nnc(C)n1-2` [III-303], the GI50 in assay [1], in assay [2] and in assay [3] was 50 to 500 nM each time.
`Cc1sc2c(c1C)C(c1ccc(N3CCC(O)(CN4CCN(c5cc(F)c([C@@H]6c7ccc(O)cc7CC[C@@H]6c6ccccc6)cc5F)CC4)CC3)cc1F)=N[C@@H](C)c1nnc(C)n1-2` [III-304]: the GI50 was 500 to 2500 nM in assay [1], under 50 nM in assay [2] and under 50 nM in assay [3].
On to `Cc1sc2c(c1C)C(c1ccc(N3CCC(O)(CN4CCN(c5ccc([C@@H]6c7ccc(O)cc7CC[C@@H]6c6ccc(F)cc6)c(Cl)c5)CC4)CC3)cc1)=N[C@@H](C)c1nnc(C)n1-2` [III-305], for which the GI50 in assay [1] was 500 to 2500 nM; in assay [2], under 50 nM; in assay [3], under 50 nM.
With `Cc1sc2c(c1C)C(c1ccc(N3CCC(O)(CN4CCN(c5ccc([C@H]6c7ccc(O)cc7CC[C@H]6c6ccc(F)cc6)c(Cl)c5)CC4)CC3)cc1)=N[C@@H](C)c1nnc(C)n1-2` [III-306], the GI50 in assay [1] lay within 500 to 2500 nM; in assay [2], 50 to 500 nM; in assay [3], 50 to 500 nM.
Turning to `COc1cc(N2CCN(CC3(O)CCN(c4ccc(C5=N[C@@H](C)c6nnc(C)n6-c6sc(C)c(C)c65)cc4)CC3)CC2)ccc1[C@H]1c2ccc(O)cc2CC[C@H]1c1cccc(F)c1` [III-309], the GI50 in assay [1], in assay [2] and in assay [3] was 50 to 500 nM in each case.
Regarding `COc1cc(N2CCN(CC3(O)CCN(c4ccc(C5=N[C@@H](C)c6nnc(C)n6-c6sc(C)c(C)c65)cc4)CC3)CC2)ccc1[C@@H]1c2ccc(O)cc2CC[C@@H]1c1cccc(F)c1` [III-310], the results for the GI50 in assay [1], in assay [2] and in assay [3] were 500 to 2500 nM, under 50 nM and under 50 nM, respectively.
`Cc1sc2c(c1C)C(c1ccc(N3CCC(CN4CCN(c5cc(F)c([C@@H]6c7ccc(O)cc7CC[C@@H]6c6ccccc6)cc5F)CC4)CC3)cc1)=N[C@@H](C)c1nnc(C)n1-2` [III-317]: the values for the GI50 in assay [1], in assay [2] and in assay [3] were 50 to 500 nM, 50 to 500 nM and under 50 nM, respectively.
On to `Cc1sc2c(c1C)C(c1ccc(N3CCC(CN4CCN(c5cc(F)c([C@H]6c7ccc(O)cc7CC[C@H]6c6ccccc6)cc5F)CC4)CC3)cc1)=N[C@@H](C)c1nnc(C)n1-2` [III-318], for which the GI50 in assay [1], in assay [2] and in assay [3] was 50 to 500 nM throughout.

Broadly, the GI50 is the concentration giving 50% growth inhibition.

For the origin of these results see patent US12558428B2, “Heterobifunctional compounds and their use in treating disease” (Halda Therapeutics OpCo, Inc., priority 2024, dated 2026).
